According to the NIST ThermoML archive (doi:10.1007/s10765-011-1087-7):

How the values were obtained:
[1] = refractive index (Na D-line) (dimensionless); details: 101.33 kPa, Liquid
[2] = 101 kPa, Liquid; for viscosity: Capillary tube (Ostwald / Ubbelohde) method; for speed of sound: Pulse-echo method
[3] = refractive index (Na D-line) (dimensionless); xn = mol fraction of the nth substance listed; details: 101 kPa, Liquid, x1 = 1
[4] = xn = mol fraction of the nth substance listed; details: 101 kPa, Liquid, x1 = 1; for speed of sound: Pulse-echo method

Clc1ccc(Cl)c(Cl)c1 [1,2,4-trichlorobenzene]
Details	mass density, [2] [kg/m3]	refractive index, [1]	speed of sound, [2] [m/s]	viscosity, [2] [mPa·s]
298.15 K	1448.41	1.548	1272	1.926
303.15 K	1442.43	1.546	1256.4	1.76
308.15 K	1436.45	1.543	1240.9	1.617

Clc1ccccc1Cl [1,2-dichlorobenzene]
Details	mass density, [2] [kg/m3]	refractive index, [1]	speed of sound, [2] [m/s]	viscosity, [2] [mPa·s]
298.15 K	1300.3	1.546	1281.6	1.314
303.15 K	1294.72	1.544	1265.2	1.235
308.15 K	1289.13	1.541	1245.9	1.144

Clc1ccccc1Cl [1,2-dichlorobenzene] + CCCCCCC(C)O
Details	mass density, [4] [kg/m3]	refractive index, [3]	speed of sound, [4] [m/s]	viscosity, [4] [mPa·s]
298.15 K	1300.3	1.546	1281.6	1.314
303.15 K	1294.72	1.544	1265.2	1.235
308.15 K	1289.13	1.541	1245.9	1.144

Clc1cccc(Cl)c1 [1,3-dichlorobenzene]
Details	mass density, [2] [kg/m3]	refractive index, [1]	speed of sound, [2] [m/s]	viscosity, [2] [mPa·s]
298.15 K	1283.45	1.544	1255	1.014
303.15 K	1277.79	1.541	1238.4	0.946
308.15 K	1272.1	1.538	1221.9	0.891

Clc1cccc(Cl)c1 [1,3-dichlorobenzene] + CCCCCCC(C)O
Details	mass density, [4] [kg/m3]	refractive index, [3]	speed of sound, [4] [m/s]	viscosity, [4] [mPa·s]
298.15 K	1283.45	1.544	1255	1.014
303.15 K	1277.79	1.541	1238.4	0.946
308.15 K	1272.1	1.538	1221.9	0.891

CCCCCCC(C)O (configuration not stated) [2-octanol]
Details	mass density, [2] [kg/m3]	refractive index, [1]	speed of sound, [2] [m/s]	viscosity, [2] [mPa·s]
298.15 K	816.39	1.4226	1307	6.566
303.15 K	812.58	1.4206	1289	5.178
308.15 K	808.74	1.4185	1271	4.162
